Source: ChEMBL document CHEMBL1131773, “Synthesis and structure-activity relationships of new non-steroidal progesterone receptor ligands” (Bioorg Med Chem Lett, 1999)

Target: T1, Progesterone receptor (Homo sapiens) (UniProt P06401)
T1 sequence (whole entry): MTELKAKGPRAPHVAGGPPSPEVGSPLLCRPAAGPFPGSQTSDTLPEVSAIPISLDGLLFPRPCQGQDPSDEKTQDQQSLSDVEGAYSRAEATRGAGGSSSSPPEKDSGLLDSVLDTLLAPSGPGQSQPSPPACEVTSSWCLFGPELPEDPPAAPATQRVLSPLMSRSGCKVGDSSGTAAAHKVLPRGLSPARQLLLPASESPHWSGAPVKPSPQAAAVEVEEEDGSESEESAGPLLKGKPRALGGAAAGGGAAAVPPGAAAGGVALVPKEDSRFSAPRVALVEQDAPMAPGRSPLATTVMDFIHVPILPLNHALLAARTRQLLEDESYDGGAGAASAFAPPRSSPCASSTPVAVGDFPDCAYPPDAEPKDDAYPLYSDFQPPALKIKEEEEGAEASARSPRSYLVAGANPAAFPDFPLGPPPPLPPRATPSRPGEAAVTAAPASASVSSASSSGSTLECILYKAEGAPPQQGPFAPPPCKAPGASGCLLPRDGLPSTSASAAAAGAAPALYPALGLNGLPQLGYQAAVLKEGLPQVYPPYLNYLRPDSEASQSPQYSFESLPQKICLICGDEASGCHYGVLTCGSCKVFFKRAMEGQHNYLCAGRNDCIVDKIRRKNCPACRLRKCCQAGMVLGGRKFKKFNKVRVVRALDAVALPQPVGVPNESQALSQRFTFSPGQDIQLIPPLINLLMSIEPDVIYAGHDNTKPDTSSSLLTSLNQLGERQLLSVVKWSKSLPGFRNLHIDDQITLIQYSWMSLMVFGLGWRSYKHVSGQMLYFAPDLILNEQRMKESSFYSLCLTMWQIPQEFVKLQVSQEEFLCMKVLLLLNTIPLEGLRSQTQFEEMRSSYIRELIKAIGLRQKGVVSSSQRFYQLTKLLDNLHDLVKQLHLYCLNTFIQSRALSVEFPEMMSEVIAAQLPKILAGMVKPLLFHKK
Assay: Relative Binding affinity(RBA) to human progesterone receptor(PR) compared to PF1092A; (RBA= IC50 of PF1092A/ IC50 of test compound at human PR)

Which relative binding affinity (RBA) does the source give for `CCC1=C2C[C@@]3(C)C(=CC[C@H](OC(C)=O)[C@@H]3C)C=C2OC1=O` here?
The relative binding affinity (RBA) was 0.2.

How did the relative binding affinity (RBA) turn out when `CO[C@H]1[C@@H](OC(C)=O)CC=C2C=C3OC(=O)C(C)=C3C[C@@]21C` was run?
Its relative binding affinity (RBA) is 0.7.

With `CC(=O)O[C@H]1CC=C2C=C3OC(=O)C(C)=C3C[C@]2(C)[C@H]1C` as the molecule, how does the relative binding affinity (RBA) read?
The relative binding affinity (RBA) was 0.8.

How did the relative binding affinity (RBA) turn out when `CC(=O)O[C@H]1CC=C2C=C3OC(=O)C(C)=C3C[C@]2(C)C1` was run?
The relative binding affinity (RBA) was 0.08.

`CC(=O)O[C@H]1CC=C2C(C)=C3OC(=O)C(C)=C3C[C@]2(C)[C@H]1C` was tested. Which relative binding affinity (RBA) did it give?
The relative binding affinity (RBA) was 0.07.

How did the relative binding affinity (RBA) turn out when `CC(=O)O[C@H]1[C@@H](O)C=C2C=C3OC(=O)C(C)=C3C[C@]2(C)[C@H]1C` was run?
The relative binding affinity (RBA) was 1.

`CC(=O)O[C@H]1[C@H](C)C=C2C=C3OC(=O)C(C)=C3C[C@]2(C)[C@H]1C` was tested. Which relative binding affinity (RBA) did it give?
Its relative binding affinity (RBA) is 1.6.

For `CC(=O)O[C@H]1CC=C2C=C3OC(=O)C=C3C[C@]2(C)[C@H]1C`, which relative binding affinity (RBA) is on record?
Its relative binding affinity (RBA) is 1.2.

`CC(=O)O[C@H]1CC=C2C=C3OC(=O)C(C)=C3[C@H](C)[C@]2(C)[C@H]1C` was tested. Which relative binding affinity (RBA) did it give?
The relative binding affinity (RBA) was 0.8.
